Measured values published in PubChem BioAssay AID1259407 (Chemical Carcinogenesis Research Information System (CCRIS), 2018).
Active and inactive are the calls of the source. How the calls were made is not given here.

Test system: CCRIS mutagenicity, Ames/micronucleus/aberration tests
Test: CCRIS mutagenicity studies
[1] = Test System: AMES SALMONELLA TYPHIMURIUM, Strain/Indicator: TA98, Metabolic Activation: NONE, Method: PREINCUBATION
[2] = Test System: AMES SALMONELLA TYPHIMURIUM, Strain/Indicator: TA100, Metabolic Activation: NONE, Method: PREINCUBATION
[3] = Test System: AMES SALMONELLA TYPHIMURIUM, Strain/Indicator: TA1535, Metabolic Activation: NONE, Method: PREINCUBATION
[4] = Test System: AMES SALMONELLA TYPHIMURIUM, Strain/Indicator: TA1537, Metabolic Activation: NONE, Method: PREINCUBATION

**Q.** `Cl/C=C\Cl` was tested. Which mutagenic call (End Point: IN VITRO CHROMOSOMAL ABERRATIONS, Test System: CHINESE HAMSTER LUNG (CHL), Metabolic Activation: NONE) did it give?
**A.** The mutagenic call was “inactive; negative”.

**Q.** What about the mutagenic call (End Point: IN VITRO CHROMOSOMAL ABERRATIONS, Test System: CHINESE HAMSTER LUNG (CHL), Metabolic Activation: RAT. LIVER, S-9, KC-400) of the same molecule?
**A.** The mutagenic call was “inactive; negative”.

**Q.** What about the mutagenic call (Test System: AMES SALMONELLA TYPHIMURIUM, Strain/Indicator: TA97, Metabolic Activation: HAMSTER LIVER S-9, AROCLOR 1254 (10%), Method: PREINCUBATION) of the same molecule?
**A.** The mutagenic call was “inactive; negative”.

**Q.** And the mutagenic call (Test System: AMES SALMONELLA TYPHIMURIUM, Strain/Indicator: TA97, Metabolic Activation: HAMSTER LIVER S-9, AROCLOR 1254 (30%), Method: PREINCUBATION)?
**A.** The mutagenic call was “inactive; negative”.

**Q.** What about the mutagenic call (Test System: AMES SALMONELLA TYPHIMURIUM, Strain/Indicator: TA97, Metabolic Activation: HAMSTER, LIVER, S-9, AROCLOR 1254 (10%), Method: PREINCUBATION) of the same molecule?
**A.** Its mutagenic call is “inactive; negative”.

**Q.** What about the mutagenic call (Test System: AMES SALMONELLA TYPHIMURIUM, Strain/Indicator: TA97, Metabolic Activation: HAMSTER, LIVER, S-9, AROCLOR 1254 (30%), Method: PREINCUBATION) of the same molecule?
**A.** The mutagenic call was “inactive; negative”.

**Q.** And the mutagenic call (Test System: AMES SALMONELLA TYPHIMURIUM, Strain/Indicator: TA97, Metabolic Activation: NONE, Method: PREINCUBATION)?
**A.** Its mutagenic call is “inactive; negative”.

**Q.** And the mutagenic call (Test System: AMES SALMONELLA TYPHIMURIUM, Strain/Indicator: TA97, Metabolic Activation: RAT LIVER S-9, AROCLOR 1254 (10% OR 30%), Method: PREINCUBATION)?
**A.** The mutagenic call was “inactive; negative”.

**Q.** What about the mutagenic call (Test System: AMES SALMONELLA TYPHIMURIUM, Strain/Indicator: TA97, Metabolic Activation: RAT, LIVER, S-9, AROCLOR 1254 (10 OR 30%), Method: PREINCUBATION) of the same molecule?
**A.** Its mutagenic call is “inactive; negative”.

**Q.** And the mutagenic call (Test System: AMES SALMONELLA TYPHIMURIUM, Strain/Indicator: TA98, Metabolic Activation: HAMSTER LIVER S-9, AROCLOR 1254 (10%), Method: PREINCUBATION)?
**A.** The mutagenic call was “inactive; negative”.

**Q.** And the mutagenic call (Test System: AMES SALMONELLA TYPHIMURIUM, Strain/Indicator: TA98, Metabolic Activation: HAMSTER LIVER S-9, AROCLOR 1254 (30%), Method: PREINCUBATION)?
**A.** Its mutagenic call is “inactive; negative”.

**Q.** What about the mutagenic call (Test System: AMES SALMONELLA TYPHIMURIUM, Strain/Indicator: TA98, Metabolic Activation: HAMSTER, LIVER, S-9, AROCLOR 1254 (10%), Method: PREINCUBATION) of the same molecule?
**A.** Its mutagenic call is “inactive; negative”.

**Q.** What about the mutagenic call (Test System: AMES SALMONELLA TYPHIMURIUM, Strain/Indicator: TA98, Metabolic Activation: HAMSTER, LIVER, S-9, AROCLOR 1254 (30%), Method: PREINCUBATION) of the same molecule?
**A.** The mutagenic call was “inactive; negative”.

**Q.** And the mutagenic call [1]?
**A.** The mutagenic call was “inactive; negative”.

**Q.** What about the mutagenic call (Test System: AMES SALMONELLA TYPHIMURIUM, Strain/Indicator: TA98, Metabolic Activation: RAT LIVER S-9, AROCLOR 1254 (10% OR 30%), Method: PREINCUBATION) of the same molecule?
**A.** Its mutagenic call is “inactive; negative”.

**Q.** And the mutagenic call (Test System: AMES SALMONELLA TYPHIMURIUM, Strain/Indicator: TA98, Metabolic Activation: RAT, LIVER, S-9, AROCLOR 1254 (10 OR 30%), Method: PREINCUBATION)?
**A.** The mutagenic call was “inactive; negative”.

**Q.** What about the mutagenic call (Test System: AMES SALMONELLA TYPHIMURIUM, Strain/Indicator: TA100, Metabolic Activation: HAMSTER LIVER S-9, AROCLOR 1254 (10%), Method: PREINCUBATION) of the same molecule?
**A.** Its mutagenic call is “inactive; negative”.

**Q.** What about the mutagenic call (Test System: AMES SALMONELLA TYPHIMURIUM, Strain/Indicator: TA100, Metabolic Activation: HAMSTER LIVER S-9, AROCLOR 1254 (30%), Method: PREINCUBATION) of the same molecule?
**A.** Its mutagenic call is “inactive; negative”.

**Q.** And the mutagenic call (Test System: AMES SALMONELLA TYPHIMURIUM, Strain/Indicator: TA100, Metabolic Activation: HAMSTER, LIVER, S-9, AROCLOR 1254 (10%), Method: PREINCUBATION)?
**A.** Its mutagenic call is “inactive; negative”.

**Q.** What about the mutagenic call (Test System: AMES SALMONELLA TYPHIMURIUM, Strain/Indicator: TA100, Metabolic Activation: HAMSTER, LIVER, S-9, AROCLOR 1254 (30%), Method: PREINCUBATION) of the same molecule?
**A.** The mutagenic call was “inactive; negative”.

**Q.** And the mutagenic call [2]?
**A.** Its mutagenic call is “inactive; negative”.

**Q.** What about the mutagenic call (Test System: AMES SALMONELLA TYPHIMURIUM, Strain/Indicator: TA100, Metabolic Activation: RAT LIVER S-9, AROCLOR 1254 (10% OR 30%), Method: PREINCUBATION) of the same molecule?
**A.** Its mutagenic call is “inactive; negative”.

**Q.** And the mutagenic call (Test System: AMES SALMONELLA TYPHIMURIUM, Strain/Indicator: TA100, Metabolic Activation: RAT, LIVER, S-9, AROCLOR 1254 (10 OR 30%), Method: PREINCUBATION)?
**A.** The mutagenic call was “inactive; negative”.

**Q.** What about the mutagenic call (Test System: AMES SALMONELLA TYPHIMURIUM, Strain/Indicator: TA1535, Metabolic Activation: HAMSTER LIVER S-9, AROCLOR 1254 (10%), Method: PREINCUBATION) of the same molecule?
**A.** Its mutagenic call is “inactive; negative”.

**Q.** What about the mutagenic call (Test System: AMES SALMONELLA TYPHIMURIUM, Strain/Indicator: TA1535, Metabolic Activation: HAMSTER, LIVER, S-9, AROCLOR 1254 (10%), Method: PREINCUBATION) of the same molecule?
**A.** Its mutagenic call is “inactive; negative”.

**Q.** And the mutagenic call (Test System: AMES SALMONELLA TYPHIMURIUM, Strain/Indicator: TA1535, Metabolic Activation: HAMSTER, LIVER, S-9, AROCLOR 1254 (30%), Method: PREINCUBATION)?
**A.** The mutagenic call was “inactive; negative”.

**Q.** What about the mutagenic call [3] of the same molecule?
**A.** The mutagenic call was “inactive; negative”.

**Q.** And the mutagenic call (Test System: AMES SALMONELLA TYPHIMURIUM, Strain/Indicator: TA1535, Metabolic Activation: RAT LIVER S-9, AROCLOR 1254 (10% OR 30%), Method: PREINCUBATION)?
**A.** Its mutagenic call is “inactive; negative”.

**Q.** And the mutagenic call (Test System: AMES SALMONELLA TYPHIMURIUM, Strain/Indicator: TA1535, Metabolic Activation: RAT, LIVER, S-9, AROCLOR 1254 (10 OR 30%), Method: PREINCUBATION)?
**A.** The mutagenic call was “inactive; negative”.

**Q.** And the mutagenic call (Test System: AMES SALMONELLA TYPHIMURIUM, Strain/Indicator: TA1537, Metabolic Activation: HAMSTER LIVER S-9, AROCLOR 1254 (30%), Method: PREINCUBATION)?
**A.** Its mutagenic call is “inactive; negative”.

**Q.** What about the mutagenic call (Test System: AMES SALMONELLA TYPHIMURIUM, Strain/Indicator: TA1537, Metabolic Activation: HAMSTER, LIVER, S-9, AROCLOR 1254 (30%), Method: PREINCUBATION) of the same molecule?
**A.** The mutagenic call was “inactive; negative”.

**Q.** And the mutagenic call [4]?
**A.** Its mutagenic call is “inactive; negative”.

**Q.** What about the mutagenic call (Test System: AMES SALMONELLA TYPHIMURIUM, Strain/Indicator: TA1537, Metabolic Activation: RAT LIVER S-9, AROCLOR 1254 (30%), Method: PREINCUBATION) of the same molecule?
**A.** The mutagenic call was “inactive; negative”.

**Q.** What about the mutagenic call (Test System: AMES SALMONELLA TYPHIMURIUM, Strain/Indicator: TA1537, Metabolic Activation: RAT, LIVER, S-9, AROCLOR 1254 (30%), Method: PREINCUBATION) of the same molecule?
**A.** The mutagenic call was “inactive; negative”.

**Q.** Which results are given for `O.O.O.O.O.O.[Cl-].[Cl-].[Ni+2]`?
**A.** mutagenic call (End Point: In vitro chromosomal aberrations, Test System: Chinese hamster V79 lung cells, Metabolic Activation: None): inactive; negative; mutagenic call [1]: inactive; negative; mutagenic call (Test System: AMES SALMONELLA TYPHIMURIUM, Strain/Indicator: TA98, Metabolic Activation: RAT LIVER S-9, PHENOBARBITAL AND BETA-NAPHTHOFLAVONE, Method: PREINCUBATION): inactive; negative; mutagenic call [2]: inactive; negative; mutagenic call (Test System: AMES SALMONELLA TYPHIMURIUM, Strain/Indicator: TA100, Metabolic Activation: RAT LIVER S-9, PHENOBARBITAL AND BETA-NAPHTHOFLAVONE, Method: PREINCUBATION): inactive; negative; mutagenic call [3]: inactive; negative; mutagenic call (Test System: AMES SALMONELLA TYPHIMURIUM, Strain/Indicator: TA1535, Metabolic Activation: RAT LIVER S-9, PHENOBARBITAL AND BETA-NAPHTHOFLAVONE, Method: PREINCUBATION): inactive; negative; mutagenic call [4]: inactive; negative; mutagenic call (Test System: AMES SALMONELLA TYPHIMURIUM, Strain/Indicator: TA1537, Metabolic Activation: RAT LIVER S-9, PHENOBARBITAL AND BETA-NAPHTHOFLAVONE, Method: PREINCUBATION): inactive; negative; mutagenic call (Test System: AMES SALMONELLA TYPHIMURIUM, Strain/Indicator: TA1538, Metabolic Activation: NONE, Method: PREINCUBATION): inactive; negative; mutagenic call (Test System: AMES SALMONELLA TYPHIMURIUM, Strain/Indicator: TA1538, Metabolic Activation: RAT LIVER S-9, PHENOBARBITAL AND BETA-NAPHTHOFLAVONE, Method: PREINCUBATION): inactive; negative; mutagenic call (Test System: CHINESE HAMSTER V-79, Strain/Indicator: V-79/(HGPRT), Metabolic Activation: NONE): active; positive; mutagenic call (Test System: E.COLI, Strain/Indicator: WP2UVRA, Metabolic Activation: NONE, Method: PREINCUBATION): inactive; negative; mutagenic call (Test System: E.COLI, Strain/Indicator: WP2UVRA, Metabolic Activation: RAT LIVER S-9, PHENOBARBITAL AND BETA-NAPHTHOFLAVONE, Method: PREINCUBATION): inactive; negative

**Q.** With `CCCN(CC(C)O)N=O` (stereo not drawn) as the molecule, how does the mutagenic call (Test System: CHINESE HAMSTER V-79, Strain/Indicator: V-79/OUABAIN, Metabolic Activation: HAMSTER, HEPATOCYTES, Method: CELL-MEDIATED) read?
**A.** Its mutagenic call is “active; positive”.

**Q.** For `CC(=O)N(O)c1ccc(Sc2ccccc2)cc1`, which mutagenic call (Test System: AMES SALMONELLA TYPHIMURIUM, Strain/Indicator: TA98, Metabolic Activation: NONE, Method: STANDARD PLATE) is on record?
**A.** The mutagenic call was “active; positive”.

**Q.** What about the mutagenic call (Test System: AMES SALMONELLA TYPHIMURIUM, Strain/Indicator: TA98, Metabolic Activation: RAT, LIVER, S-9, AROCLOR 1254, Method: STANDARD PLATE) of the same molecule?
**A.** Its mutagenic call is “active; positive”.

**Q.** Which results are given for `Nc1ccc(Cc2ccc(NO)c(Cl)c2)cc1Cl`?
**A.** mutagenic call [1]: active; positive; mutagenic call [2]: active; positive
